Measurements reported in PubChem BioAssay AID1918935 (Molecular Pharmacology Branch, DTP, NCI, 2023).
Several values for one entry are separate records, joined by “and”; a condition that tells them apart may be missing. Equal values may be shown once.

Test system: 324938-238-R-J1-PDC complex spheroid viability
Assay: Anticancer human tumor 324938-238-R-J1-PDC patient-derived bladder carcinoma cell line growth inhibition
Settings: for viability, T/C: stronger effect = lower value; active = viability on the fitted dose curve at most 10% of control; inactive = the rest
How it was run: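 Multicellular complex spheroids of tumor cells with human endothelial cells (HUVEC) and mesenchymal stem cells; the LSD1 inhibitor iadademstat was combined with standard-of-care or investigational agents. Top concentration at or near clinical Cmax, half-log dilutions; final DMSO ≤0.25%.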

[1] = curve of first compound, second compound 0.1 µM
[2] = curve of first compound, second compound 0.316 µM
[3] = curve of first compound, second compound 1 µM
[4] = curve of first compound, second compound 3.16 µM
[5] = curve of first compound, second compound 10 µM
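Note: spheroids also contain HUVEC and human MSCs and agents combined with iadademstat; spheroids exposed to agents for 7 days before readout.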

CCc1c2c(nc3ccc(O)cc13)-c1cc3c(c(=O)n1C2)COC(=O)[C@]3(O)CC
< 0.949 nM: IC50 (curve of compound)
7.99% and 9.82%: viability, T/C (compound 0.000949 µM)
active: viability, T/C (compound 0.003 µM) 9.25% and 10.8% | viability, T/C (compound 0.00949 µM) 6.79% and 6.81% | viability, T/C (compound 0.03 µM) 2.02% and 1.48% | viability, T/C (compound 0.0949 µM) 0.16% and 0.66% | viability, T/C (compound 0.3 µM) 0.2% and 0.27%

CC1COCCN1c1cc(C2(S(C)(=N)=O)CC2)nc(-c2ccnc3[nH]ccc23)n1 (centres undefined)
inactive: viability, T/C (compound 0.0316 µM) 104% and 97.9% | viability, T/C (compound 0.1 µM) 101% and 108% | viability, T/C (compound 0.316 µM) 98.3% and 78.8% | viability, T/C (compound 1 µM) 71.4% and 44.7% | viability, T/C (compound 3.16 µM) 27.9% and 21.4% | viability, T/C (compound 10 µM) 14.6% and 8.79%
1760 nM and 853 nM: IC50 (curve of compound)

Nc1ccn(C2OC(CO)C(O)C2(F)F)c(=O)n1 (centres undefined) + NC1CCC(NC2CC2c2ccccc2)CC1
active: viability, T/C (second compound 0.1 µM, first compound 0.000949 µM) 7.42% | viability, T/C (second compound 0.1 µM, first compound 0.003 µM) 7.71% | viability, T/C (second compound 0.1 µM, first compound 0.00949 µM) 7.38% | viability, T/C (second compound 0.1 µM, first compound 0.03 µM) 6.53% | viability, T/C (second compound 0.1 µM, first compound 0.0949 µM) 5.05% | viability, T/C (second compound 0.1 µM, first compound 0.3 µM) 5.23% | viability, T/C (second compound 0.316 µM, first compound 0.003 µM) 7.95% | viability, T/C (second compound 0.316 µM, first compound 0.00949 µM) 6.91% | viability, T/C (second compound 0.316 µM, first compound 0.03 µM) 7.37% | viability, T/C (second compound 0.316 µM, first compound 0.0949 µM) 5.53% | viability, T/C (second compound 0.316 µM, first compound 0.3 µM) 5.05% | viability, T/C (second compound 1 µM, first compound 0.003 µM) 9.08% | viability, T/C (second compound 1 µM, first compound 0.00949 µM) 8.5% | viability, T/C (second compound 1 µM, first compound 0.03 µM) 7.08% | viability, T/C (second compound 1 µM, first compound 0.0949 µM) 5.53% | viability, T/C (second compound 1 µM, first compound 0.3 µM) 5.33% | viability, T/C (second compound 3.16 µM, first compound 0.003 µM) 8.82% | viability, T/C (second compound 3.16 µM, first compound 0.00949 µM) 9.28% | viability, T/C (second compound 3.16 µM, first compound 0.03 µM) 7.53% | viability, T/C (second compound 3.16 µM, first compound 0.0949 µM) 5.27% | viability, T/C (second compound 3.16 µM, first compound 0.3 µM) 5.32% | viability, T/C (second compound 10 µM, first compound 0.003 µM) 9.1% | viability, T/C (second compound 10 µM, first compound 0.00949 µM) 9.36% | viability, T/C (second compound 10 µM, first compound 0.03 µM) 8.14% | viability, T/C (second compound 10 µM, first compound 0.0949 µM) 4.93% | viability, T/C (second compound 10 µM, first compound 0.3 µM) 5.8%
< 0.949 nM: IC50 [1] | IC50 [2] | IC50 [3] | IC50 [4] | IC50 [5]
inactive: viability, T/C (second compound 0.316 µM, first compound 0.000949 µM) 10.3% | viability, T/C (second compound 1 µM, first compound 0.000949 µM) 9.63% | viability, T/C (second compound 3.16 µM, first compound 0.000949 µM) 10.8% | viability, T/C (second compound 10 µM, first compound 0.000949 µM) 11.8%

CC1COCCN1c1cc(C2(S(C)(=N)=O)CC2)nc(-c2ccnc3[nH]ccc23)n1 (centres undefined) + NC1CC1c1ccc(-c2cccc(O)c2)cc1
374 nM: IC50 [4]
301 nM: IC50 [2]
active: viability, T/C (second compound 0.1 µM, first compound 10 µM) 8.83% | viability, T/C (second compound 1 µM, first compound 10 µM) 9.55%
304 nM: IC50 [3]
294 nM: IC50 [5]
507 nM: IC50 [1]
inactive: viability, T/C (second compound 0.1 µM, first compound 0.0316 µM) 86.1% | viability, T/C (second compound 0.1 µM, first compound 0.1 µM) 81.3% | viability, T/C (second compound 0.1 µM, first compound 0.316 µM) 58.3% | viability, T/C (second compound 0.1 µM, first compound 1 µM) 35.9% | viability, T/C (second compound 0.1 µM, first compound 3.16 µM) 18% | viability, T/C (second compound 0.316 µM, first compound 0.0316 µM) 80.1% | viability, T/C (second compound 0.316 µM, first compound 0.1 µM) 71% | viability, T/C (second compound 0.316 µM, first compound 0.316 µM) 46.3% | viability, T/C (second compound 0.316 µM, first compound 1 µM) 30.8% | viability, T/C (second compound 0.316 µM, first compound 3.16 µM) 20.5% | viability, T/C (second compound 0.316 µM, first compound 10 µM) 8.77% | viability, T/C (second compound 1 µM, first compound 0.0316 µM) 74.5% | viability, T/C (second compound 1 µM, first compound 0.1 µM) 65.3% | viability, T/C (second compound 1 µM, first compound 0.316 µM) 47.9% | viability, T/C (second compound 1 µM, first compound 1 µM) 34.6% | viability, T/C (second compound 1 µM, first compound 3.16 µM) 21.8% | viability, T/C (second compound 3.16 µM, first compound 0.0316 µM) 67.6% | viability, T/C (second compound 3.16 µM, first compound 0.1 µM) 71.5% | viability, T/C (second compound 3.16 µM, first compound 0.316 µM) 47.8% | viability, T/C (second compound 3.16 µM, first compound 1 µM) 35.9% | viability, T/C (second compound 3.16 µM, first compound 3.16 µM) 22.2% | viability, T/C (second compound 3.16 µM, first compound 10 µM) 10.4% | viability, T/C (second compound 10 µM, first compound 0.0316 µM) 75% | viability, T/C (second compound 10 µM, first compound 0.1 µM) 66.1% | viability, T/C (second compound 10 µM, first compound 0.316 µM) 45.7% | viability, T/C (second compound 10 µM, first compound 1 µM) 36.4% | viability, T/C (second compound 10 µM, first compound 3.16 µM) 21.2% | viability, T/C (second compound 10 µM, first compound 10 µM) 12.2%
